Experimental data published in PMC10004634 (PLOS ONE, 2023).
Like-named read-outs stand apart in the source and are kept apart here.

Assays:
Assay in all cases: biochemical
Design in all cases: KINOMEscan scanMAX competition binding, DNA-tagged kinases, qPCR read-out, percent control at 300 nM
LZK = molecular target: T1, LZK (Homo sapiens, UniProt O43283)
T1 construct: gene MAP3K13
T1 sequence (O43283 1-966): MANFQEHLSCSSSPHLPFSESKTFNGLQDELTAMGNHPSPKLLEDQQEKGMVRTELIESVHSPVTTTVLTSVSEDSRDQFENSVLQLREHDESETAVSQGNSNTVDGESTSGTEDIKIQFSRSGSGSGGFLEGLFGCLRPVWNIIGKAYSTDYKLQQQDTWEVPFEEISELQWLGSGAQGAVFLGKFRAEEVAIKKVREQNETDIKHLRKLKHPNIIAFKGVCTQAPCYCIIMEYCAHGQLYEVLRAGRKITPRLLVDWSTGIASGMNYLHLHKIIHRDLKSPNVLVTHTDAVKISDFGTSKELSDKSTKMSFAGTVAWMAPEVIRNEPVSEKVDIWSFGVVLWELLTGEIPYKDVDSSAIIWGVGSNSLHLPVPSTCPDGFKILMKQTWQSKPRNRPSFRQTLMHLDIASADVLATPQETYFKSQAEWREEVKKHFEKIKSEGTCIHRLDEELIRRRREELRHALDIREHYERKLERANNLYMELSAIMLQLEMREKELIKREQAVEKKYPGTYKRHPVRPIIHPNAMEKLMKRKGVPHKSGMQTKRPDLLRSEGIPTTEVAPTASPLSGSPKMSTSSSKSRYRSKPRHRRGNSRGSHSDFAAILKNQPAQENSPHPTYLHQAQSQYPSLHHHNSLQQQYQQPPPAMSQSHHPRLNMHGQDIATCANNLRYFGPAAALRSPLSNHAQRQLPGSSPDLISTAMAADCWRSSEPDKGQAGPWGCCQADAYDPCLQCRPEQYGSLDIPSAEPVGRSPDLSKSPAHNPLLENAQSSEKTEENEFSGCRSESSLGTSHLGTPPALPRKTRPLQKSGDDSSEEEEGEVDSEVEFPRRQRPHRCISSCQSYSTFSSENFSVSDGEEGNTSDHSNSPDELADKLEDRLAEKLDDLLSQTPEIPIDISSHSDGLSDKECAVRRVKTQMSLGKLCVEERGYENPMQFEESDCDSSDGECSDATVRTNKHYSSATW

SRPK3 = SRPK3 (Homo sapiens, UniProt Q9UPE1)
ICK = molecular target: T2, ICK (Homo sapiens, UniProt Q9UPZ9)
T2 construct: gene CILK1
T2 sequence (Q9UPZ9 1-632): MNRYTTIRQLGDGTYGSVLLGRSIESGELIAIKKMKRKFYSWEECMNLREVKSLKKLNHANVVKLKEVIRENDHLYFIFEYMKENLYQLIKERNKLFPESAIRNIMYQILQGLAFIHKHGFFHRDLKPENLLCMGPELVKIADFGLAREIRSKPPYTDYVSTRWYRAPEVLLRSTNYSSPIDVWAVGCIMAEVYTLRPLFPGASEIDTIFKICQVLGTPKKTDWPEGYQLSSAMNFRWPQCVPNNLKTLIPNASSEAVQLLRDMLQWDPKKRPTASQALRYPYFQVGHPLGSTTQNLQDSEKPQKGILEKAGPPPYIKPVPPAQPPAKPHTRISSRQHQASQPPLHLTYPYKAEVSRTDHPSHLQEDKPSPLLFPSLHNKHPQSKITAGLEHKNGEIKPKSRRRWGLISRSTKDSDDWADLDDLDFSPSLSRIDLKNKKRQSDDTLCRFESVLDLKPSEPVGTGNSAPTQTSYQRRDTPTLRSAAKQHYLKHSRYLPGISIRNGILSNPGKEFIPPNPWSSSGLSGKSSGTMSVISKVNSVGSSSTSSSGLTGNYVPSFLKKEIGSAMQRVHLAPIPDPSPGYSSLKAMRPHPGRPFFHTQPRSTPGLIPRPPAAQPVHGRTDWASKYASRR

SRMS = SRMS (Homo sapiens, UniProt Q9H3Y6)
PRKCH = PRKCH (Homo sapiens, UniProt P24723)
FGFR3 = FGFR3 (Homo sapiens, UniProt P22607)
CSF1R = CSF1R (Homo sapiens, UniProt P07333)
NEK3 = molecular target: T3, NEK3 (Homo sapiens, UniProt P51956)
T3 sequence (P51956 1-506): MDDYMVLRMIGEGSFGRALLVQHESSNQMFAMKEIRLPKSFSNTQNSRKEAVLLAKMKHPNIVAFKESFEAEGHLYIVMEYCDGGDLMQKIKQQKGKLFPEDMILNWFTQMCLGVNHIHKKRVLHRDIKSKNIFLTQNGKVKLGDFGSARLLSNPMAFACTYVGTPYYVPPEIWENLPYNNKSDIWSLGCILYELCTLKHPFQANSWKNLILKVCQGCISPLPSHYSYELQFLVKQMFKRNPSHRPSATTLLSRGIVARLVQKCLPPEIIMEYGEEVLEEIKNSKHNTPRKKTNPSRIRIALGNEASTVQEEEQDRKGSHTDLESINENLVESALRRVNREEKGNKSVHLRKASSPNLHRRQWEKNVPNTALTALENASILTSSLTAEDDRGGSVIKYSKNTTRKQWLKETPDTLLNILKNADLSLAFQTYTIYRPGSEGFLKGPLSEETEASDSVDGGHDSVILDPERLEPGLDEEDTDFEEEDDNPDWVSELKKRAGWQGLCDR

PIK4CB = molecular target: T4, PIK4CB (Homo sapiens, UniProt Q9UBF8)
T4 construct: gene PI4KB

[1] = read-out: Percent control / Acalabrutinib
[2] = read-out: Percent control / Ibrutinib
[3] = read-out: Percent control / Tirabrutinib
[4] = read-out: Percent control / Zanubrutinib

CSF1R, sequence (P07333 whole entry): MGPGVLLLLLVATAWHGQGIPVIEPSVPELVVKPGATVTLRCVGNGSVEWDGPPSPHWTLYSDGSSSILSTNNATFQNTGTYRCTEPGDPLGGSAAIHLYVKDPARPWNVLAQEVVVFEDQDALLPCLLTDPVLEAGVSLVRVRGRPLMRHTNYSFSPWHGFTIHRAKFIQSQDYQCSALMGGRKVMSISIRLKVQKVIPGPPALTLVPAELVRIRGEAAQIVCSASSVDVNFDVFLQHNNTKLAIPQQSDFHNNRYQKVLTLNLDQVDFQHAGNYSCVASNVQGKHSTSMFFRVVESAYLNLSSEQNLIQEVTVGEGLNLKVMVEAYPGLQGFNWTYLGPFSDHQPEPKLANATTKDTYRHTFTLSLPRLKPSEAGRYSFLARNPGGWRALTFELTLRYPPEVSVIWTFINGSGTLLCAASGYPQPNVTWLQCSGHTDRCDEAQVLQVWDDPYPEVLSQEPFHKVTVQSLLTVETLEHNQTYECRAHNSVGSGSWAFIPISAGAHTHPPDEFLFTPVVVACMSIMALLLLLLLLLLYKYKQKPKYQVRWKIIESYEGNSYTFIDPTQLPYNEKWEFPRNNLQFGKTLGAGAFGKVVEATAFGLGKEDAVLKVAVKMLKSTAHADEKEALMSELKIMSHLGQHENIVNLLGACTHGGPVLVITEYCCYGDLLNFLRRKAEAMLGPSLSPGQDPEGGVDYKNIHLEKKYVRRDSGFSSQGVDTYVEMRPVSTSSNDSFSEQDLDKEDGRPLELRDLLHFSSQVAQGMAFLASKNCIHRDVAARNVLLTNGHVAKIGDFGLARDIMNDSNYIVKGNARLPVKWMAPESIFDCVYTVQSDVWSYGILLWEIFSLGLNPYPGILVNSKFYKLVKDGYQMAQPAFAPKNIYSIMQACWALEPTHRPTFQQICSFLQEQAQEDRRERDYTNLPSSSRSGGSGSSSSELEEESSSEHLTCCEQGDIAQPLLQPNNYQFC
FGFR3, sequence (P22607 whole entry): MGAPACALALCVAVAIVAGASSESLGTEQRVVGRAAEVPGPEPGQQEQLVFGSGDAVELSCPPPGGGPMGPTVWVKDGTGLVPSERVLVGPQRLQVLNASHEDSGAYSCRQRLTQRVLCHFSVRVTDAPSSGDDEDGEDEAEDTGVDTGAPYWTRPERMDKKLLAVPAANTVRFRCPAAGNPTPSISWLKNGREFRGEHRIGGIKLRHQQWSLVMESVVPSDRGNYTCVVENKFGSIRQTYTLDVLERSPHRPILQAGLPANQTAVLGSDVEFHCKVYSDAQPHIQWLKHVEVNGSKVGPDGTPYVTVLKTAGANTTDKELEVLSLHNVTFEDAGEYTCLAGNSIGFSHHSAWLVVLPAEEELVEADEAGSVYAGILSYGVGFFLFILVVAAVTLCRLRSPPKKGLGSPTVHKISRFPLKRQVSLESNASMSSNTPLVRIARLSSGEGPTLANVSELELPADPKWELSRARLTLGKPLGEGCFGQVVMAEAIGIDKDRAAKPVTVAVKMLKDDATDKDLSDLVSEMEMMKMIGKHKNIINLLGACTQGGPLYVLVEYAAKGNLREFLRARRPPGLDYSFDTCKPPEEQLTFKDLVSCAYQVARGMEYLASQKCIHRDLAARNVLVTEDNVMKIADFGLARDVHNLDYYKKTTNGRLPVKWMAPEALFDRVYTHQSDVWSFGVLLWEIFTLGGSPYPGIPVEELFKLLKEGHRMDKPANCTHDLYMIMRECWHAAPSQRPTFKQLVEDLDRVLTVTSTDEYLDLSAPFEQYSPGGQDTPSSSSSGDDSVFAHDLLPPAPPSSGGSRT
T4 sequence (Q9UBF8 whole entry): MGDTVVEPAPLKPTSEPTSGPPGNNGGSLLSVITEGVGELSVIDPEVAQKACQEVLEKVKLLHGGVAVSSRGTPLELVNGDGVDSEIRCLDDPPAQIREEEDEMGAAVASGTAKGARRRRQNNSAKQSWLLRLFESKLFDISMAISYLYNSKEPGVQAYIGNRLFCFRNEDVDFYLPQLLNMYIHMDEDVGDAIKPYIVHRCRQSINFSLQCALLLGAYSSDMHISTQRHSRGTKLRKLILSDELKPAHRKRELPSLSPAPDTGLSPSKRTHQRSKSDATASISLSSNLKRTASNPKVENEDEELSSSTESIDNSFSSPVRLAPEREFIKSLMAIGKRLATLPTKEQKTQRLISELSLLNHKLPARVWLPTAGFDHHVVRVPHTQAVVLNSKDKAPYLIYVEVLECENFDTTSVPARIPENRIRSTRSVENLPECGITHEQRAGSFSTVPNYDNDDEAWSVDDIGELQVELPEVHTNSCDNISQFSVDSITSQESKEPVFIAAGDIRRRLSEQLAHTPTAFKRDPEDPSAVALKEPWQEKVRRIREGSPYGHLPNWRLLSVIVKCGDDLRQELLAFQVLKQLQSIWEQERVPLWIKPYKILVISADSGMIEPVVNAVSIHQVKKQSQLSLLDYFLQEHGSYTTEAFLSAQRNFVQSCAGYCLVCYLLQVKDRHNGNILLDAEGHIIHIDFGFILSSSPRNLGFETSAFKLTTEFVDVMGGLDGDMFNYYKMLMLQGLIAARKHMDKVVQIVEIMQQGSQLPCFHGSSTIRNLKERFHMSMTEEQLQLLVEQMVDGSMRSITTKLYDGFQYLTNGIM
PRKCH, sequence (P24723 whole entry): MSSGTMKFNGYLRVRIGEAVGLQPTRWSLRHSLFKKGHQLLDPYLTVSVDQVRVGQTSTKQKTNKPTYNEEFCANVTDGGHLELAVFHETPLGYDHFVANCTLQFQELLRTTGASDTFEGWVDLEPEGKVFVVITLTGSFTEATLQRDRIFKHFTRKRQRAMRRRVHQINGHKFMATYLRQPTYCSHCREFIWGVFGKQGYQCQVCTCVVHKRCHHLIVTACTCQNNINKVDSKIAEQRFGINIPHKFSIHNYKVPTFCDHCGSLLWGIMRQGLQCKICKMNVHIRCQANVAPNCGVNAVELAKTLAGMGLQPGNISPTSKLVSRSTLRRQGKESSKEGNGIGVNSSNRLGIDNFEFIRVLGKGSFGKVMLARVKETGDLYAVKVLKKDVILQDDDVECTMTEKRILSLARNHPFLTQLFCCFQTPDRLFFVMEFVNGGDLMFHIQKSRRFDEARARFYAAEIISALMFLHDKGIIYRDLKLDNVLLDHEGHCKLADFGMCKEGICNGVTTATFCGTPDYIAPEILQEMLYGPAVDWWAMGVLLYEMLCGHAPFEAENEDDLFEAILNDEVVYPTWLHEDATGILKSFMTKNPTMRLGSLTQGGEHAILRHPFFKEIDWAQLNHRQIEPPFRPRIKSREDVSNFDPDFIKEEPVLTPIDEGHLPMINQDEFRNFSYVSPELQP
SRMS, sequence (Q9H3Y6 whole entry): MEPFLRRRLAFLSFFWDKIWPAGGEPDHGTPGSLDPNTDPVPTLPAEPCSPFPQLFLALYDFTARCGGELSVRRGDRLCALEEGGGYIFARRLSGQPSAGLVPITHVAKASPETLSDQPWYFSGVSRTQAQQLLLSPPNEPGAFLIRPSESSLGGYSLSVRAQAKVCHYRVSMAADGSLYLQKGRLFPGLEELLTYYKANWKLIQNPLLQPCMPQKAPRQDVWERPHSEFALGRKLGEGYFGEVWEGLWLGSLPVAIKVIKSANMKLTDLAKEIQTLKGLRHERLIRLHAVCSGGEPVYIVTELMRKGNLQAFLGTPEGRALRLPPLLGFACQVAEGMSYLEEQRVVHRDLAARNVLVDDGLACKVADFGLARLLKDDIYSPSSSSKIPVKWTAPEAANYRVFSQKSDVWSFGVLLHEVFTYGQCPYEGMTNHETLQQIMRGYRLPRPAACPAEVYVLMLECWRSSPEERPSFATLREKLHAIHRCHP
SRPK3, sequence (Q9UPE1 whole entry): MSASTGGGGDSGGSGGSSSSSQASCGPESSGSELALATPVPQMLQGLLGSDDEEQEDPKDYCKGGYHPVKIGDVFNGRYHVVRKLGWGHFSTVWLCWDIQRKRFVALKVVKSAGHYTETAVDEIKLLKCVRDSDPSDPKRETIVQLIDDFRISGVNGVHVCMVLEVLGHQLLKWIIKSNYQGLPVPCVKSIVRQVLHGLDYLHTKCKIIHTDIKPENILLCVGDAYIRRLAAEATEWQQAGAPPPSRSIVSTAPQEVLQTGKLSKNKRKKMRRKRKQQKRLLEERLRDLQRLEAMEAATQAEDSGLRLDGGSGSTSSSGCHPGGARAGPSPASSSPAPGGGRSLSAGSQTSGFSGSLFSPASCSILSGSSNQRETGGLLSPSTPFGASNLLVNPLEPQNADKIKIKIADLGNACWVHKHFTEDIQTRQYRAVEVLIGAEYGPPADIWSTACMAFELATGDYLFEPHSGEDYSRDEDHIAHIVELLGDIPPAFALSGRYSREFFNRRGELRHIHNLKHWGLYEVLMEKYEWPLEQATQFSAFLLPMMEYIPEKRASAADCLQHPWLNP

CC#CC(=O)N1CCC[C@H]1c1nc(-c2ccc(C(=O)Nc3ccccn3)cc2)c2c(N)nccn12 [Acalabrutinib]
remaining binding at 0.3 µM (LZK; [1]): 85% | remaining binding at 0.3 µM (SRPK3; [1]): 86% | remaining binding at 0.3 µM (ICK; [1]): 82% | remaining binding at 0.3 µM (SRMS; [1]): 79% | remaining binding at 0.3 µM (PRKCH; [1]): 94% | remaining binding at 0.3 µM (FGFR3; [1]): 95% | remaining binding at 0.3 µM (CSF1R; [1]): 88% | remaining binding at 0.3 µM (NEK3; [1]): 95% | remaining binding at 0.3 µM (PIK4CB; [1]): 72%

C=CC(=O)N1CCC[C@@H](n2nc(-c3ccc(Oc4ccccc4)cc3)c3c(N)ncnc32)C1 [Ibrutinib]
remaining binding at 0.3 µM (LZK; [2]): 79% | remaining binding at 0.3 µM (SRPK3; [2]): 96% | remaining binding at 0.3 µM (ICK; [2]): 61% | remaining binding at 0.3 µM (SRMS; [2]): 0.3% | remaining binding at 0.3 µM (PRKCH; [2]): 90% | remaining binding at 0.3 µM (CSF1R; [2]): 66% | remaining binding at 0.3 µM (NEK3; [2]): 99%

CC#CC(=O)N1CC[C@@H](n2c(=O)n(-c3ccc(Oc4ccccc4)cc3)c3c(N)ncnc32)C1 [Tirabrutinib]
remaining binding at 0.3 µM (LZK; [3]): 63% | remaining binding at 0.3 µM (ICK; [3]): 60% | remaining binding at 0.3 µM (SRMS; [3]): 82% | remaining binding at 0.3 µM (PRKCH; [3]): 91% | remaining binding at 0.3 µM (FGFR3; [3]): 92% | remaining binding at 0.3 µM (PIK4CB; [3]): 79%

C=CC(=O)N1CCC([C@@H]2CCNc3c(C(N)=O)c(-c4ccc(Oc5ccccc5)cc4)nn32)CC1 [Zanubrutinib]
remaining binding at 0.3 µM (LZK; [4]): 93% | remaining binding at 0.3 µM (SRPK3; [4]): 100% | remaining binding at 0.3 µM (PRKCH; [4]): 97% | remaining binding at 0.3 µM (FGFR3; [4]): 93% | remaining binding at 0.3 µM (CSF1R; [4]): 88% | remaining binding at 0.3 µM (NEK3; [4]): 100% | remaining binding at 0.3 µM (PIK4CB; [4]): 94%
